Results from patent US7112581B2, “Macrocyclic lactams” (Nereus Pharmaceuticals, Inc., priority 2002, dated 2006).
Where “and” joins values, the source holds several entries; their conditions need not be identical. Identical values can stand only once. Like-named read-outs stand apart in the source and are kept apart here.

Columns and labels:
[1] = tested on: HT-29 (ATCC HTB-38) human colorectal adenocarcinoma; experiment: tumor cytotoxicity assay (resazurin), HT-29; assay type: cell-based; settings: HT-29, 48 h
Method: HT-29 (ATCC HTB-38) a human colorectal adenocarcinoma was maintained in McCoy's complete medium (McCoy's 5A medium with L-glutamine and 25 mM HEPES supplemented with 10% FBS, 1 mM Na pyruvate, 1X NEAA, 2 mM L-glutamine, and Pen/Strep at 100 IU/ml and 100 μg/ml, respectively). Cell lines were cultured at 37° C., 5% CO2 in a 95% humidified incubator. For tumor cytotoxicity assays HT-29, PC-3, or B16-F10 cells were seeded at 5×10^3, 5×10^3 or 1.25×10^3 cells/well cells were seeded at 5,000 cells/well in 90 μl complete media into a Corning 3904 black-walled, clear-bottom tissue culture plate and the plate were incubated overnight to allow cells to establish and enter log phase growth. Jurkat cells were seeded on the day of compound addition at 2×10^4 cells/well in 90 μl complete media into a Corning 3904 black-walled, clear-bottom tissue culture plate. 20 mM stock solutions of the compound of Formula (I) were prepared in 100% DMSO and stored at −20° C. 10×concentrated serial dilutions of the compounds were prepared in appropriate culture medium for final concentrations ranging from 2×10–5 to 2×10–12. Ten μl volumes of the 10×serial dilutions were added to the test wells in triplicate and the plates returned to the incubator for 48 hours. The final concentration of DMSO was 0.25% in all samples. […] Because living cells metabolize Resazurin, the fluorescence of the reduction product of Resazurin was measured using a Fusion microplate fluorometer (Packard Bioscience) with λex=535 nm and λem=590 nm filters. The plates were removed and resazurin fluorescence was measured using 530 nm excitation and 590 nm emission filters in a Fusion fluorimeter (Packard Instruments). […] The data were analyzed using Prism software (GraphPad Software). The data were normalized to the average of the cells treated with media only (100% cell growth) and EC50 values were determined using a standard sigmoidal dose response curve fitting algorithm.

[2] = tested on: PC-3 (ATCC CRL-1435) human prostate adenocarcinoma; experiment: tumor cytotoxicity assay (resazurin), PC-3; assay type: cell-based; settings: 48 h, read-out: EC50 for the PC3 assay
[3] = tested on: Jurkat (ATCC TIB-152) human acute T cell leukemia; experiment: tumor cytotoxicity assay (resazurin), Jurkat; assay type: cell-based
Method: (§1) Jurkat (ATCC TIB-152) a human acute T cell leukemia was maintained in RPMI complete medium (RPMI 1640 medium supplemented with 10% FBS, 2 mM L-glutamine, 10 mM HEPES, 1 mM Na pyruvate, 1X NEAA, and Pen/Strep at 100 IU/ml and 100 μg/ml, respectively). Cell lines were cultured at 37° C., 5% CO2 in a 95% humidified incubator. For tumor cytotoxicity assays HT-29, PC-3, or B16-F10 cells were seeded at 5×10^3, 5×10^3 or 1.25×10^3 cells/well cells were seeded at 5,000 cells/well in 90 μl complete media into a Corning 3904 black-walled, clear-bottom tissue culture plate and the plate were incubated overnight to allow cells to establish and enter log phase growth. […] Because living cells metabolize Resazurin, the fluorescence of the reduction product of Resazurin was measured using a Fusion microplate fluorometer (Packard Bioscience) with λex=535 nm and λem=590 nm filters. The plates were removed and resazurin fluorescence was measured using 530 nm excitation and 590 nm emission filters in a Fusion fluorimeter (Packard Instruments). […] The data were analyzed using Prism software (GraphPad Software). The data were normalized to the average of the cells treated with media only (100% cell growth) and EC50 values were determined using a standard sigmoidal dose response curve fitting algorithm.

[4] = tested on: B16-F10 (ATCC CRL-6475) mouse melanoma; experiment: tumor cytotoxicity assay (resazurin), B16-F10; assay type: cell-based
Method: as §1, with “B16-F10” for “Jurkat”, “CRL-6475)” for “TIB-152)”, “mouse melanoma” for “human acute T cell leukemia”, “in” for “in RPMI”, “DMEM (DMEM” for “medium (RPMI 1640 medium”, “HEPES,” for “HEPES, 1 mM Na pyruvate, 1X NEAA,”

[5] = tested on: Escherichia coli ATCC 610100; experiment: antimicrobial resazurin growth assay, E. coli; assay type: cell-based; settings: ATCC610100, 37° C., 4 to 6 hours
Method: (§2) The biological characteristics of compound of Formula (I) were evaluated in Escherichia coli ATCC 610100, Pseudomonas aeruginosa ATCC 614000, Haemophilus influenzae A21515, Staphylococcus aureus, methicillin resistant (MRSA) ATCC 605000, Enterococcus faecalis ATCC 662000, Streptococcus pneumoniae ATCC 661100 and Candida glabrata ATCC 200918. All cultures were maintained in Brain Heart Infusion Medium (Oxoid), except C. glabrata, which was maintained in Potato Dextrose Broth (Difco).
(§3) For antimicrobial assays of E. coli, P. aeruginosa, H. influenzae, MRSA, E. faecalis and S. pneumoniae, the cells in Brain Heart Infusion Medium were added to 96 well plates at a volume of 176 μl/well. The compound to be tested was added to the wells (20 μl/well) together with 10 μl of 0.2 mg/ml resazurin (Sigma). The plates were incubated at 37° C. for 4 to 6 hours. The growth of the cultures was monitored by measuring the fluorescence of the plates using a fluorometer with λex=535 nm and λem=590 nm filters. Resazurin dye without cells was used to determine the background, which was subtracted from the data for all experimental wells. The data were analyzed using Prism software (GraphPad Software). The data were normalized to the average of the cells treated with media only (100% cell growth) and the IC50 values were determined using a standard sigmoidal dose response curve fitting algorithm.

[6] = tested on: Pseudomonas aeruginosa ATCC 614000; experiment: antimicrobial resazurin growth assay, P. aeruginosa; assay type: cell-based; settings: ATCC614000, 37° C., 4 to 6 hours
Method: as §2, §3

[7] = tested on: Haemophilus influenzae A21515; experiment: antimicrobial resazurin growth assay, H. influenzae; assay type: cell-based; settings: 37° C., 4 to 6 hours
Method: as §2, §3

[8] = tested on: Staphylococcus aureus, methicillin resistant (MRSA) ATCC 605000; experiment: antimicrobial resazurin growth assay, MRSA; assay type: cell-based; settings: 37° C., 4 to 6 hours
Method: as §2, §3

[9] = tested on: Enterococcus faecalis ATCC 662000; experiment: antimicrobial resazurin growth assay, E. faecalis; assay type: cell-based; settings: ATCC662000, 37° C., 4 to 6 hours
Method: as §2, §3

[10] = tested on: Streptococcus pneumoniae ATCC 661100; experiment: antimicrobial resazurin growth assay, S. pneumoniae; assay type: cell-based; settings: ATCC661100, 37° C., 4 to 6 hours
Method: as §2, §3

[11] = tested on: Candida glabrata ATCC 200918; experiment: antimicrobial resazurin growth assay, C. glabrata; assay type: cell-based; settings: Nakaseomyces glabratus, ATCC200918; Potato Dextrose medium
[12] = tested on: Staphylococcus aureus (MSSA); experiment: susceptibility assay by broth microdilution (NCCLS), MSSA; assay type: cell-based; settings: Staphyloccus aureus MSSA
Method: (§4) The anti-infective potential of the compound was re-evaluated in susceptibility assays performed by broth microdilution in accordance with National Committee for Clinical Laboratory Standards (NCCLS) guidelines, M7-A5, January 2000. The compound was tested versus the following microorganisms: Staphylococcus aureus (MSSA), Staphylococcus aureus (MRSA), Streptococcus pneumoniae, vancomycin-sensitive Enterococcus faecalis, Haemophilus influenzae, Pseudomonas aeruginosa and Candida albicans.

[13] = tested on: Staphylococcus aureus (MRSA); experiment: susceptibility assay by broth microdilution (NCCLS), MRSA; assay type: cell-based; settings: Staphyloccus aureus MRSA
Method: as §4

[14] = tested on: Streptococcus pneumoniae 49619; experiment: susceptibility assay by broth microdilution (NCCLS), S. pneumoniae; assay type: cell-based
Method: as §4

[15] = tested on: vancomycin-sensitive Enterococcus faecalis; experiment: susceptibility assay by broth microdilution (NCCLS), E. faecalis; assay type: cell-based; settings: Enterococcus faecalis VSE
Method: as §4

Escherichia coli imp = experiment: susceptibility assay by broth microdilution (NCCLS), E. coli; assay type: cell-based
[16] = tested on: Haemophilus influenzae 49766; experiment: susceptibility assay by broth microdilution (NCCLS), H. influenzae; assay type: cell-based
Method: as §4

[17] = tested on: Pseudomonas aeruginosa 27853; experiment: susceptibility assay by broth microdilution (NCCLS), P. aeruginosa; assay type: cell-based; settings: Pseudomona aeruginosa 27853
Method: as §4

Candida albicans 90028 = experiment: susceptibility assay by broth microdilution (NCCLS), C. albicans; assay type: cell-based
Method: as §4

solubility (observation) = assay type: physicochemical

CCC/C=C/CC1C/C=C/C=C(C)/C=C/C=C\C(O)CC(O)C(O)/C=C/C=C/C=C/C(=O)N1 (stereo not drawn) [compound of Formula (I)]
EC50 ([1]; compound alone, read-out: EC50 in the HT-29 assay): 0.922 µg/mL and 2.03 µM
EC50 ([1]; compound with interferon, read-out: EC50 in the HT-29 assay): 0.263 µg/mL and 580 nM
EC50 ([1]; further evaluation (Table 2), read-out: HT-29 EC50): 3.62 ± 2.57 µM
EC50 ([2]; compound alone): 1.29 µg/mL and 2.84 µM
EC50 ([2]; compound with TNF-α): 0.988 µg/mL and 2.18 µM
EC50 ([3]; further evaluation (Table 2), 48 hours, read-out: Jurkat EC50): 2.33 ± 1.11 µM
EC50 ([3]; one set of evaluations, unit inferred, read-out: EC50 for the Jurkat cells): 2.33 ± 1.11 µM
EC50 ([4]; further evaluation (Table 2), 48 hours, read-out: B16-F10 EC50): 2.16 ± 0.87 µM
EC50 ([4]; one set of evaluations, unit inferred, read-out: EC50 for the B16-F10 cells): 2.16 ± 0.87 µM
IC50 [5]: > 4 µg/mL
IC50 [6]: > 4 µg/mL
IC50 [7]: > 4 µg/mL
IC50 [8]: 1 µg/mL and 2.2 µM
IC50 [9]: 3 µg/mL and 6.6 µM
IC50 [10]: 4 µg/mL and 8.8 µM
IC50 [11]: 3 µg/mL and 6.6 µM
MLC [12]: >32 µg/mL
MIC ([12]; Staphylococcus aureus): > 32 µg/mL
MLC [13]: >32 µg/mL
MIC ([13]; Staphylococcus aureus): 12 µg/mL
MIC [14]: 32 µg/mL
MLC [14]: >32 µg/mL
MIC [15]: 32 µg/mL
MLC [15]: >32 µg/mL
MIC (Escherichia coli imp; Escherichia coli): > 32 µg/mL
MLC (Escherichia coli imp; Escherichia coli imp): >32 µg/mL
MIC [16]: > 32 µg/mL
MLC [16]: >32 µg/mL
MLC [17]: >32 µg/mL
MIC ([17]; Pseudomonas aeruginosa): > 32 µg/mL
MIC (Candida albicans 90028): > 32 µg/mL
MLC (Candida albicans 90028): >32 µg/mL
solubility (solubility (observation)): substantially insoluble
